Laboratory results from patent US8541365B2, “Dendrimeric compounds comprising amino acids, hyperbranched core compound, process for preparation of dendrimeric compounds comprising amino acids and hyperbranched core compound, and use thereof” (Instytut Chemii Organicznej, Polska Akademia Nauk, priority 2008, dated 2013).
Like-named read-outs stand apart in the source and are kept apart here.

Legend:
P. aeruginosa ATTC 27853 = type: cell-based, Pseudomonas aeruginosa
Protocol: (§1) Titration plates with a, b, d strains were incubated for 18 h at 35° C. under aerobic conditions, and the c strain was incubated for 18 h at 33° C. under aerobic conditions.
a) Pseudomonas aeruginosa ATCC 27853,

C. albicans ATCC 10231 = test system: C. albicans ATCC 10231
Protocol: Values of a minimal inhibitory concentration—MIC of compounds according to the invention for bacterial strains were assayed by a standard method of microdilutions on a liquid substrate (Clinical and Laboratory Standards Institute 2007. Methods for Dilution Antimicrobial Susceptibility Tests for Bacteria That Grow Aerobically. Approved Standard—Seventh Edition. M7-A7. Clinical and Laboratory Standards Institute, Wayne, Pa., USA).
A series of double dilutions of the tested compounds in DMSO was prepared. They were then diluted 95× in CAMHB (Cation Adjusted Mueller—Hinton Broth).
Bacteria were cultured for 24 h at 35° C. under aerobic conditions on a solid TSA (Triptic Soy Agar) medium. A volume of a proper test was 0.1 ml and was composed of: 0.005 ml of a saline suspension of bacteria at a density of 10^7 CFU/ml (final bacteria amount of 5×10^5/ml) and 0.095 ml of a tested compound CAMHB solution. Final concentrations of compounds in the proper test were (μg/ml): 128, 64, 32, 16, 8, 4, 2, 1.
e) C. albicans ATCC 10231.

E. coli ATTC 25922 = type: cell-based, Escherichia coli
Protocol: as §1
d) Escherichia coli ATCC 25922

S. aureus ATCC 25923 = type: cell-based, Staphylococus aureus subsp. aureus
Protocol: as §1
b) Staphylococus aureus subsp. aureus ATCC 25923,

S. aureus ATTC 43300 = type: cell-based, Staphylococus aureus subsp. aureus
Protocol: as §1
c) Staphylococus aureus subsp. aureus ATCC 43300,

[1] = test system: human melanoma cells (MEW 155); details: MEW 155 cells, 3 days culture
Protocol: Human melanoma cells (MEW 155) received from Institute of Oncology were inoculated on Petri dishes (Ø3 cm, Nunc) to the number of about 75 000, suspended in 3 ml of Eagle medium+10% FBS+antibiotics. Immediately after the inoculation, solutions of tested substances were added to the cells (a substance +20 ml PBS) at 0.5 ml per dish. After culturing for 3 days, numbers of cells (all, dead and alive) at each dish were determined with NucleoCounter apparatus (Chemometec).

[2] = P. aeruginosa ATTC 27853, microdilution in CAMHB, 18 h at 35° C.
[3] = E. coli ATTC 25922, microdilution in CAMHB, 18 h at 35° C.
[4] = S. aureus ATCC 25923, microdilution in CAMHB, 18 h at 35° C.
[5] = S. aureus ATTC 43300, microdilution in CAMHB, 18 h at 33° C.

SMILES	Minimal inhibitory concentration (MIC) (P. aeruginosa ATTC 27853; [2]) [μM/L]	Minimal inhibitory concentration (MIC) (C. albicans ATCC 10231) [μM/L]	Minimal inhibitory concentration (MIC) (E. coli ATTC 25922; [3]) [μM/L]	Minimal inhibitory concentration (MIC) (S. aureus ATCC 25923; [4]) [μM/L]	Minimal inhibitory concentration (MIC) (S. aureus ATTC 43300; [5]) [μM/L]	further results
NC[C@H](NC(=O)OCc1ccccc1)C(=O)NCCNC(=O)CCN(CCCC[C@@H](C(=O)NCCc1c[nH]c2ccccc12)N(CCC(=O)NCCNC(=O)[C@H](CN)NC(=O)OCc1ccccc1)CCC(=O)NCCNC(=O)[C@H](CN)NC(=O)OCc1ccccc1)CCC(=O)NCCNC(=O)[C@H](CN)NC(=O)OCc1ccccc1 [Compound 105]	81	81	81	38	81	Live cells (%) ([1]; concentration 10.0 μMol dm^−3): 97.7%
CCCCCCCCCCCCNC(=O)[C@H](CCCN(CCC(=O)NCCNC(=O)[C@H](CCCCN)NC(=O)OCc1ccccc1Cl)CCC(=O)NCCNC(=O)[C@H](CCCCN)NC(=O)OCc1ccccc1Cl)N(CCC(=O)NCCNC(=O)[C@H](CCCCN)NC(=O)OCc1ccccc1Cl)CCC(=O)NCCNC(=O)[C@H](CCCCN)NC(=O)OCc1ccccc1Cl [Compound 109]		69				Live cells (%) ([1]; concentration 25.7 μMol dm^−3): 1.5%
NCCCC[C@H](NC(=O)OCc1ccccc1Cl)C(=O)NCCNC(=O)CCN(CCC(=O)NCCNC(=O)[C@H](CCCCN)NC(=O)OCc1ccccc1Cl)CC[C@@H](C(=O)NCCc1c[nH]c2ccccc12)N(CCC(=O)NCCNC(=O)[C@H](CCCCN)NC(=O)OCc1ccccc1Cl)CCC(=O)NCCNC(=O)[C@H](CCCCN)NC(=O)OCc1ccccc1Cl [Compound 94]	70		12.2	0.94	10.12	Live cells (%) ([1]; concentration 12.13 μMol dm^−3): 88.4%
NCCCC[C@H](NC(=O)OCc1ccccc1)C(=O)NCCNC(=O)CCN(CCCC[C@@H](C(=O)NCCc1c[nH]c2ccccc12)N(CCC(=O)NCCNC(=O)[C@H](CCCCN)NC(=O)OCc1ccccc1)CCC(=O)NCCNC(=O)[C@H](CCCCN)NC(=O)OCc1ccccc1)CCC(=O)NCCNC(=O)[C@H](CCCCN)NC(=O)OCc1ccccc1 [Compound 102]						Minimal inhibitory concentration (MIC) (P. aeruginosa ATTC 27853; ATTC 27853, 18 h): 149 μM/L; Minimal inhibitory concentration (MIC) (E. coli ATTC 25922; ATTC 25922, 18 h): 149 μM/L; Minimal inhibitory concentration (MIC) (S. aureus ATCC 25923; ATCC 25923, 18 h): 17.3 μM/L; Minimal inhibitory concentration (MIC) (S. aureus ATTC 43300; ATTC 43300, 18 h): 149 μM/L; Live cells (%) ([1]; concentration 13.6 μMol dm^−3): 98.5%
